Assay results reported in US20040063662A1, “Selenophene anti-tumor agents” (priority 1996, published 2004).
Values after ≈ are worked out from the molar mass of the structure shown. Values joined by “and” are separate entries in the source; they are usually repeats but may differ in a detail not shown here. Equal values may be shown once. Read-outs that look alike come from different tables or passages of the source.

Experiments:
[1] = target: T1, 50:50 mixture of recombinant mouse PKCα and mouse PKCβ2; test: Protein Kinase C (PKC) screening assay; type: biochemical; conditions: Inhibition of Protein Kinase C
T1 construct: The enzymes are expressed in Sf9 insect cells from recombinant baculovirus and partially purified on DEAE-cellulose and Sephacryl 200 gel filtration
From the text: The Protein Kinase C (PKC) screening assay utilized in the following experiments is similar to standard PKC assays used by many investigators. Its primary features are that 1) the assay utilizes a 50:50 mixture of recombinant mouse PKCα and mouse PKCβ2; 2) employs histone as phosphate-accepting substrate; and 3) the PKC enzymatic activity is activated with phosphatidylserine, TPA and low concentration of calcium, so that both calcium and TPA are somewhat limiting for the extent of activation. In this manner the assay is sensitive to inhibitors of PKC activation. A more detailed description of the assay is provided in the following paragraphs.
The recombinant PKC formulation is a mixture (equal parts by activity) of mouse PKCα and mouse PKCβ2. The enzymes are expressed in Sf9 insect cells from recombinant baculovirus and partially purified on DEAE-cellulose and Sephacryl 200 gel filtration. Sufficient PKC is added to each reaction to provide approximately 4 pmols phosphate transferred in 30 minute (per total reaction.) The reaction is linear over the time when 4 pmols of phosphate is transferred and the reaction remains linear well beyond this time frame.
The PKC screening assay is performed in 96 well polystyrene U bottom micro titer plates, in a total reaction volume of 50 ul. Solution manipulations are performed during the assay utilize a Rainin, motorized EDP-plus M8 eight-channel micropipettor.
In some cases 50% DMSO:water, water, or methanol is substituted (if essential) for the solvent. At least 25 μl of the highest concentration sample to be assayed is transferred to a well in a 96 well U-bottom polystyrene assay plate. Serial 5-fold or 10-fold dilutions (depending on the dose-range desired) are made using the EDP-plus M8 eight-channel pipettor in dilute mode and mixing by repipetting. Using the 8-channel pipettor, 2 μl of each dilution is transferred to the appropriate wells of the plate(s) to be used for each assay. Duplicate assays are performed for each dose, with each assay, allowing six wells (half the row) for three-dose assays, or 12 wells (the whole row) for six-dose assays. In general, extracts and fractions are assayed at three doses: 400, 40 an 4 ug/ml, while pure compounds are tested at six doses: 400, 80, 16, 3.2, 0.64, 0.128 ([…]).

[2] = tested on: ras-transformed human bronchial epithelial cells (TBE); test: Selective cytotoxicity microculture assay, ras-transformed bronchial epithelial cells; type: cell-based
[3] = Selective cytotoxicity microculture assay, human renal carcinoma; conditions: human, SCI (selectively cytotoxicity index), GI50 (RPTEC)/GI50 (A-498)
[4] = tested on: human renal carcinoma cells (A-498); test: as above
[5] = tested on: normal human renal cells (RPTEC); test: Selective cytotoxicity microculture assay, normal human renal cells; type: cell-based
[6] = Homo sapiens, Epithelial cell, read-out: GI50
[7] = Homo sapiens, A498, A-498 human renal carcinoma

SMILES	IC50 [1]	GI50 [2]	GI50 [2, 6]	selectivity ratio [3]	GI50 [4, 7]	GI50 [5]	GI50 ([4]; A-498 human renal carcinoma)
OCc1ccc(-c2ccc(-c3ccc(CO)[se]3)[se]2)[se]1 [compound 675247]	10 µg/mL (≈ 22300 nM)	20000 ng/mL (≈ 44500 nM)	30000 ng/mL (≈ 66800 nM)	> 1000			
OCc1ccc(-c2ccc(-c3ccc[se]3)[se]2)[se]1 [compound 675246]	3 × 10^0 μg/ml	2 ng/mL (≈ 4.77 nM)	3 ng/mL (≈ 7.16 nM)	> 1000	0.003 ng/mL (≈ 0.00716 nM)		
OCc1ccc(-c2ccc(-c3ccc(CO)s3)[se]2)s1 [compound 675343]	30 µg/mL (≈ 84400 nM)						
OCc1ccc(-c2ccc(-c3ccc[se]3)s2)[se]1 [compound 676631]	2 × 10^0 μg/ml						
OCc1ccc(-c2ccc(-c3ccc(CO)[se]3)s2)[se]1 [compound 676632]	50 µg/mL (≈ 124000 nM)			> 1000	0.0003 ng/mL (≈ 0.000746 nM)	2 ng/mL and 0.3 ng/mL	0.0002 ng/mL (≈ 0.000497 nM)
